Patent US20230149409A1, “TREATMENT OF HUMAN PAPILLOMAVIRUS-ASSOCIATED CANCERS BY PD-L1 INHIBITORS” (priority 2021, published 2023)

Experiments:
[1] = target: T1, PD-⅟PD-L1 (recombinant human PD-L1 protein and human PD-1 protein) (Homo sapiens, UniProt Q9NZQ7); experiment: Homogeneous Time-Resolved Fluorescence (HTRF) PD-1/PD-L1 binding assay; details: 3 nM PD1, 10 nM PD-L1, 25° C., PBS pH 7.4
T1 construct: Recombinant human PD-L1 protein (19-238) with a His-tag at the C-terminus; purchased AcroBiosystems PD1-H5229 (PD-L1); PD1-H5257 (PD-1)
T1 sequence (Q9NZQ7 19-238): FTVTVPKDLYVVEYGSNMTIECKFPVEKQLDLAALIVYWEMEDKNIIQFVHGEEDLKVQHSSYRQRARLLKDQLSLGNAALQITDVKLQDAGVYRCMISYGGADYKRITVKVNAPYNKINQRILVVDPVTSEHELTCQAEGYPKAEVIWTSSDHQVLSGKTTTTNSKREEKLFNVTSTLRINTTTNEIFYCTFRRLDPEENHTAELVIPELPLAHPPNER
Protocol: Homogeneous Time-Resolved Fluorescence (HTRF) PD-⅟PD-L1 Binding Assay
The assays were conducted in a standard black 384-well polystyrene plate with a final volume of 20 uL. Inhibitors were first serially diluted in DMSO and then added to the plate wells before the addition of other reaction components. The final concentration of DMSO in the assay was 1%. The assays were carried out at 25° C. in the PBS buffer (pH 7.4) with 0.05% Tween-20 and 0.1% BSA. […] PD-L1 and PD-1 proteins were diluted in the assay buffer and 10 uL was added to the plate well. Plates were centrifuged and proteins were preincubated with inhibitors for 40 minutes. The incubation was followed by the addition of 10 uL of HTRF detection buffer supplemented with Europium cryptate-labeled anti-human IgG (PerkinElmer-AD0212) specific for Fc and anti-His antibody conjugated to SureLight®-Allophycocyanin (APC, PerkinElmer-AD0059H). […] Final concentrations in the assay were - 3 nM PD1, 10 nM PD-L1, 1 nM europium anti-human IgG and 20 nM anti-His-Allophycocyanin. IC50 determination was performed by fitting the curve of percent control activity versus the log of the inhibitor concentration using the GraphPad Prism 5.0 software.

[2] = tested on: PD-L1 (PD-L1 aAPC/CHO-K1 cells, Jurkat-PD-1-NFAT effector cells); experiment: Nuclear Factor of Activated T-cells (NFAT) assay; assay type: cell-based; details: Cricetulus griseus; PD-L1 aAPC/CHO-K1 + Jurkat-PD-1-NFAT cells, 24 hours
Protocol: Nuclear Factor of Activated T-cells (NFAT) Assay
PD-L1 aAPC/CHO-K1cells (Promega) were maintained in F-12 medium with addition of 10% FBS, 200 µg/mL Hygromycin B, 250 µg/mL Geneticin (G418). […] The culture media of PD-L1 aAPC/CHO-K1 cells were first replaced with assay medium (RPMI1640 medium with 1% FBS). The PD-L1 aAPC/CHO-K1cells were then added in a white 384-well white clear bottom assay plate (CELLCOAT® Tissue Culture Plates, Greiner Bio-One) at 8000 per well in 10 uL assay medium. […] 5 uL compounds in the assay medium were transferred to the cells with 0.4% DMSO in the final assay at 2 µM. After removing the culture media, 10,000 Jurkat-PD-1-NFAT effector cells in 5 µL assay medium was dispensed into each well. The assay plate was incubated at 37° C., 5% CO2 for 24 hours. […] After 8 minutes incubation at room temperature, luminescence was read at with Pherastar microplate reader (BMG Labtech). The fold of induction (FOI) was calculated based on the ratio of luminescence normalized to the DMSO wells within each assay plate. The maximum percentage of induction was reported based on the ratio between the highest FOI of each compound and the maximum FOI of control compound within each assay plate. Wells with DMSO were served as the negative controls and wells containing control compound with the highest FOI were used as positive controls. EC50 determination was performed by fitting the curve of percent control activity versus the log of the compound concentration using the GraphPad Prism 6.0 software.

[3] = target: T2, PD-L1 on CD14+ cells in human whole blood (Homo sapiens, UniProt Q9NZQ7); experiment: PD-L1 whole blood internalization assay; assay type: cell-based; details: 1 ng/mL interferon γ, CD14+ gated, 24 hour
T2 construct: Cells were gated on CD14+ (BD Biosciences) and PD-L1 expression determined by mean fluorescence intensity; host or cells: CD14+ cells in normal human whole blood, stimulated with human interferon gamma
T2 sequence (Q9NZQ7 19-290): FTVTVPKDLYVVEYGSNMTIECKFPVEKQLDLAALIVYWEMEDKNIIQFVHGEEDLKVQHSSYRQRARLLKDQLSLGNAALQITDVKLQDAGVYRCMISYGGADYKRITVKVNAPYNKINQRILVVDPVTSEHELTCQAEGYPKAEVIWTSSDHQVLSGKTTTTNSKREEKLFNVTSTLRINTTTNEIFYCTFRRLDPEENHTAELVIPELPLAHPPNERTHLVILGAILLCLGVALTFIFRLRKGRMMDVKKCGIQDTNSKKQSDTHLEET
Protocol: PD-L1 Whole Blood Internalization Assay
To determine PD-L1 internalization in human whole blood, normal human blood (Biological Specialty Corp, Colmar. PA) was incubated in the presence or absence of a concentration range of test compounds and 1 ng/mL human interferon γ (R&D Systems Inc. Minn. MN) in a 96 well “2 mL Assay Block” (Corning, Corning NY) for 18-20 hours at 37 °C. Blood was then stained with PD-L1 (MIH1, eBioscience; or BD Biosciences San Jose, CA), CD14 (Life Technologies, Carlsbad, CA) for 30 minutes in the dark at room temperature. Whole Blood/red cells were lysed/fixed (lysis buffer BD Biosciences) for 5 minutes at 37 °C in the dark and then centrifuged at 1600 RPM for 5 minutes. Cells were resuspended in Stain Buffer (BD Bioscience, San Jose, CA) and transferred into 96 well round bottom plates (Coming). Cells were gated on CD14+ (BD Biosciences) and PD-L1 expression determined by mean fluorescence intensity (MFI) (BD LSRFortessa® X-20). IC50 determination was performed by fitting the curve of compound percent inhibition versus the log of the compound concentration using the GraphPad Prism 7.0 software.

[4] = tested on: PD-L1 (U2OS/PD-L1 cells, Jurkat-PD-1-SHP cells); experiment: Src Homology Region 2 Domain-containing Phosphatase (SHP) assay; assay type: cell-based; details: Homo sapiens; U2OS/PD-L1 + Jurkat-PD-1-SHP cells, 2 hours
Protocol: Example 1B. Src Homology Region 2 Domain-containing Phosphatase (SHP) Assay
U2OS/PD-L1 cells (DiscoveRx Corporation) were maintained in McCoy’s 5A medium with addition of 10% FBS, 0.25 µg/mL Puromycin. After removing the culture media, the cell medium was replaced with assay medium (RPMI1640 medium with 1% FBS). The U2OS/PD-L1 cells were then added in 384-well black clear bottom assay plate (CELLCOAT® Tissue Culture Plates, Greiner Bio-One) at 5000 cells per well in 20 uL assay medium. Test compounds were prepared by serial dilution in DMSO and 125 nL compound were first transferred to the 384 REMP plate well (Thermofisher) by ECHO liquid handler (Labcyte) followed with addition of 27.5 uL assay medium. 5 µL/well compounds in the assay medium were transferred to the cell plate with 0.05% DMSO in the final assay at 0.25 µM. Jurkat-PD-1-SHP cells (DiscoveRx Corporation) were cultured in RPMI1640 medium supplemented with 10% FBS, 250 µg/mL Hygromycin B, 500 µg/mL G418. After the replacement of culture media with assay medium, 5,000 Jurkat-PD-1-SHP cells in 20 µL were dispensed into each well. The assay plate was incubated at 37° C., 5% CO2 for 2 hours before 2.5 uL PathHunter reagent 1 (DiscoveRx Corporation) were added to each well. The assay plate was shaken for 1 min at 350 rpm in the dark followed with addition of 10 uL PathHunter reagent 2 (DiscoveRx Corporation). Chemiluminescent signal was recorded with TopCount reader (Perkin Elmer) after incubation at room temperature for 1 hour. Wells with DMSO were served as the positive controls and wells containing no cells were used as negative controls. IC50 determination was performed by fitting the curve of percentage of control activity versus the log of the compound concentration using the GraphPad Prism 6.0 software.

Row | IC50 [1] | IC50 [3] | IC50 [4] | Structure (SMILES) | EC50 [2]
1 | < 10 nM | < 100 nM | < 10 nM | CN1CCc2c(nc(C(=O)Nc3cccc(-c4cccc(NC(=O)c5nc6c(n5C)CCN(CC[C@H]5CC[C@H](C(=O)O)CC5)C6)c4C#N)c3Cl)n2C)C1 [Compound 19, trans-4-(2-(2-((2′-chloro-2-cyano-3′-(1,5-dimethyl-4,5,6,7-tetrahydro-1H-imidazo[4,5-c]pyridine-2-carboxamido)-[1,1′-biphenyl]-3yl)carbamoyl)-1-methyl-1,4,6,7-tetrahydro-5H-imidazo[4,5-c]pyridin-5-yl)ethyl)cyclohexane-1-carboxylic acid] | < 100 nM
2 | < 10 nM | < 500 nM | < 10 nM | CCN(C)CC(=O)N1Cc2nc(-c3cccc(-c4cccc(NC(=O)c5nc6c(n5C)CCN(C[C@H]5CC[C@H](C(=O)O)CC5)C6)c4Cl)c3C)sc2C1 [Compound 20, trans-4-((2-(2-chloro-3′-(5-(2-(ethyl(methyl)amino)acetyl)-5,6-dihydro-4H-pyrrolo[3,4-d]thiazol-2-yl)-2′-methylbipheiryl-3-ylcarbamoyl)-1-methyl-6,7-dihydro-1H-imidazo [4,5-c]pyridin-5 (4H)-yl)methyl)cyclohexane-1-carboxylic acid] | < 500 nM
3 | < 10 nM | < 100 nM | < 10 nM | CCN(C)CC(=O)N1Cc2nc(-c3cccc(-c4cccc(NC(=O)c5nc6c(n5C)CCN(C[C@H]5CC[C@@H](C(=O)O)CC5)C6)c4Cl)c3C)sc2C1 [Compound 21, cis-4-((2-(2-chloro-3′-(5-(2-(ethyl(methyl)amino)acetyl)-5,6-dihydro-4H-pyrrolo[3,4-d]thiazol-2-yl)-2′-methylbiphenyl-3-ylcarbamoyl)-1-methyl-6,7-dihydro-1H-imidazo [4,5-c]pyridin-5 (4H)-yl)methyl)cyclohexane-1-carboxylic acid] | < 100 nM
4 | < 10 nM | < 500 nM | < 10 nM | CCN(C)CC(=O)N1Cc2nc(-c3cccc(-c4cccc(NC(=O)c5nc6c(n5C)CCN(CCC5CCC(C(=O)O)CC5)C6)c4Cl)c3C)sc2C1 (stereo not drawn) [Compound 22, 4-(2-(2-(2-chloro-3′-(5-(2-(ethyl(methyl)amino)acetyl)-5,6-dihydro-4H-pyrrolo[3,4-d]thiazol-2-yl)-2′-methylbiphenyl-3-ylcarbamoyl)-1-methyl-6,7-dihydro-1H-imidazo[4,5-c]pyridin-5(4H)-yl)ethyl)cyclohexane-1-carboxylic acid] | < 100 nM
5 | < 10 nM | < 100 nM | < 10 nM | Cc1c(-c2nc3c(s2)CN(C(=O)CN(C)C(C)C)C3)cccc1-c1cccc(NC(=O)c2nc3c(n2C)CCN(CCC2CCC(C(=O)O)CC2)C3)c1Cl (stereo not drawn) [Compound 23, 4-(2-(2-(2-chloro-3′-(5-(2-(isopropyl(methyl)amino)acetyl)-5,6-dihydro-4H-pyrrolo[3,4-d]thiazol-2-yl)-2′-methylbiphenyl-3-ylcarbamoyl)-1-methyl-6,7-dihydro-1H-imidazo[4,5-c]pyridin-5(4H)-yl)ethyl)cyclohexane-1-carboxylic acid] | < 100 nM
6 | < 10 nM | < 100 nM | < 10 nM | C[C@@H](O)CN1CCc2c(nc(C(=O)Nc3cccc(-c4cccc(NC(=O)c5nc6c(n5C)CCN(CCC57CCC(C(=O)O)(CC5)C7)C6)c4Cl)c3Cl)n2C)C1 [Compound 29] | < 10 nM
7 | < 10 nM | < 100 nM | < 10 nM | Cn1c(C(=O)Nc2cccc(-c3cccc(NC(=O)c4nc5c(n4C)CCN(CC46CCC(C(=O)O)(CC4)C6)C5)c3Cl)c2Cl)nc2c1CCN(CCC13CCC(C(=O)O)(CC1)C3)C2 [Compound 31, 4-((2-((3′-(5-(2-(4-carboxybicyclo[2.2.1]heptan-1-yl)ethyl)-1-methyl-4,5,6,7-tetrahydro-1H-imidazo[4,5-c]pyridine-2-carboxamido)-2,2′-dichloro-[1,1′-biphenyl]-3-yl)carbamoyl)-1-methyl-1,4,6,7-tetrahydro-5H-imidazo[4,5-c]pyridin-5-yl)methyl)bicyclo[2.2.1]heptane-1-carboxylic acid] | < 100 nM
8 | < 10 nM | < 100 nM | < 10 nM | Cc1c(NC(=O)c2nc3c(n2C)CCN(CCC24CCC(C(=O)O)(CC2)C4)C3)cccc1-c1cccc(NC(=O)c2nc3c(n2C)CCN(CCC24CCC(C(=O)O)(CC2)C4)C3)c1Cl [Compound 32, 4,4′-(((((2-chloro-2′-methyl-[1,1′-biphenyl]-3,3′-diyl)bis(azanediyl))bis(carbonyl))bis(1-methyl-1,4,6,7-tetrahydro-5H-imidazo[4,5-c]pyridine-2,5-diyl))bis(ethane-2,1-diyl))bis(bicyclo[2.2.1]heptane-1-carboxylic acid)] | < 100 nM
9 | < 10 nM | < 100 nM | < 10 nM | Cn1c(C(=O)Nc2cccc(-c3cccc(NC(=O)c4nc5c(n4C)CCN(CCC46CCC(C(=O)O)(CC4)C6)C5)c3C#N)c2Cl)nc2c1CCN(CCC13CCC(C(=O)O)(CC1)C3)C2 [Compound 33, 4,4′-(((((2-chloro-2′-cyano-[1,1′-biphenyl]-3,3′-diyl)bis(azanediyl))bis(carbonyl))bis(1-methyl-1,4,6,7-tetrahydro-5H-imidazo[4,5-c]pyridine-2,5-diyl))bis(ethane-2,1-diyl))bis(bicyclo[2.2.1]heptane-1-carboxylic acid)] | < 100 nM
